Assay results from patent US4820834A, “Benzodiazepine analogs” (priority 1987, dated 1989).
pIC50: −log10 of the molar value. Like-named read-outs stand apart in the source and are kept apart here.

Assays:
CCK receptor (pancreas) = biological target: T1, CCK receptor (pancreas) (Rattus norvegicus, UniProt P30551); assay: CCK Receptor Binding (Pancreas): inhibition of ^125 I-CCK-33 binding; parameters: species or system Male Sprague-Dawley rats; details: rat pancreas membranes, ^125 I-CCK-33, 37° C., 30 minutes
T1 construct: The whole pancreas was dissected free of fat tissue and was homogenized; from tissue; host or cells: rat pancreas membranes (Sprague-Dawley)
T1 sequence (P30551 1-444): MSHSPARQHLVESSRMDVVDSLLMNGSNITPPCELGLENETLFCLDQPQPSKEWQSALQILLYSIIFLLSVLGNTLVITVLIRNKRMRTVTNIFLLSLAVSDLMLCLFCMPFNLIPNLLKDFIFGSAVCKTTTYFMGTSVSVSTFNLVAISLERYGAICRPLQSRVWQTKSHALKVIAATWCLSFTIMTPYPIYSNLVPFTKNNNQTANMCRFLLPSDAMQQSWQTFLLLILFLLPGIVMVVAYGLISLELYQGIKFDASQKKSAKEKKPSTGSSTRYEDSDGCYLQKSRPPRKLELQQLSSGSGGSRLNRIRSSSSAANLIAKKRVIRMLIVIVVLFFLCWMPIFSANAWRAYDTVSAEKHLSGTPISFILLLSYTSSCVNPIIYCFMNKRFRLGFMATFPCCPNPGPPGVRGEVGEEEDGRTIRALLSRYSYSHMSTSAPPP
Procedure: 1. CCK Receptor Binding (Pancreas)
CCK-33 was radiolabeled with ^125 I-Bolton Hunter reagent (2000 Ci/mmole) as described by Sankara et al. (J. Biol. Chem. 254: 9349-9351, 1979). Receptor binding was performed according to Innis and Snyder (Proc. Natl. Acad. Sci. 77: 6917-6921, 1980) with the minor modification of adding the additional protease inhibitors, phenylmethane sulfonyl fluoride and o-phenanthroline.
Male Sprague-Dawley rats (200-350 g) were sacrificed by decapitation. The whole pancreas was dissected free of fat tissue and was homogenized in 20 volumes of ice-cold 50 mM, Tris HCl (pH 7.7 at 25° C.) with a Brinkmann Polytron PT 10. The homogenates were centrifuged at 48,000 g for 10 min. Pellets were resuspended in Tris Buffer, centrifuged as above and resuspended in 200 volumes of binding assay buffer (50 mM Tris HCl, pH 7.7 at 25° C., 5 mM dithiothrietol, 0.1 mM bacitracin, 1.2 mM phenylmethane sulfonyl fluoride and 0.5 mM o-phenanthroline). […] All assays were run in duplicate or triplicate. The reaction mixtures were incubated at 37° C. for 30 minutes and centrifuged in a Beckman Microfuge (4 minutes) immediately after adding 1 ml of ice-cold incubation buffer. The supernatant was aspirated and discarded, pellets were counted with a Beckman gamma 5000. For Scatchard analysis (Ann. N.Y. Acad. Sci. 51: 660, 1949), ^125 I-CCK-33 was progressively diluted with increasing concentrations of CCK-33.

[1] = biological target: T2, CCK receptor (brain, cerebral cortex) (Cavia porcellus, UniProt H0VZC5); assay: biochemical; format: binding, Male Hartley guinea pigs; details: guinea pig cerebral cortex, ^125 I-CCK-33, 25° C., 2 hours
T2 construct: Cerebral cortex was dissected and used as a receptor source; from tissue; host or cells: guinea pig cerebral cortex membranes (male Hartley)
T2 sequence (H0VZC5 1-426): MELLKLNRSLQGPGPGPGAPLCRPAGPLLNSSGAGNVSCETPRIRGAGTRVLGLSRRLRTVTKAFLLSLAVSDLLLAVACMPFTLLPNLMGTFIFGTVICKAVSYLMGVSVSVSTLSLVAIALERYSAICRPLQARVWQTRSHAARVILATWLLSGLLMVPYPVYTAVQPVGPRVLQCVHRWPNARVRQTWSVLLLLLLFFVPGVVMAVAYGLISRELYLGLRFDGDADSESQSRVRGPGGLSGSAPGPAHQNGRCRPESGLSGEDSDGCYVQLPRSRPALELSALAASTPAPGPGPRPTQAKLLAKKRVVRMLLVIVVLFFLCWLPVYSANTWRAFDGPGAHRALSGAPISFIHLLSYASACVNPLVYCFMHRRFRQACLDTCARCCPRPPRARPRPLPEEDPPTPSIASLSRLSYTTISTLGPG
Procedure, shortened: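 Binding of [radiolabeled] CCK-33 measured by gamma counting of centrifuged pellets after 2 h at 25°C. Membranes came from guinea pig brain cortex, suspended in 10 mM HEPES, 5 mM MgCl2, 1 mM EGTA, 0.25 mg/ml bacitracin, 0.4% BSA.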

[2] = biological target: T3, Gastrin receptor (gastric glands) (Cavia porcellus, UniProt H0VZC5); assay: Gastrin Receptor Binding in Guinea Pig Gastric Glands; parameters: species or system guinea pig (male Hartley); details: IC50 ^125 I-Gastrin Gastric Glands, 25° C., 30 minutes
T3 construct: The washed guinea pig gastric glands prepared as above were resuspended; from tissue; host or cells: guinea pig gastric mucosal glands (male Hartley)
T3 sequence (H0VZC5 1-426): T2 sequence (H0VZC5 1-426)

[3] = read-out: IC50 ^125 I-CCK Pancreas

Compound	pIC50 (CCK receptor (pancreas); IC50 ^125 I-CCK Pancreas)	other results
CN1C(=O)[C@@H](Cc2cn(C)c3ccccc23)N=C(c2ccccc2F)c2ccccc21 [4a & 44]	6.44	
O=C1Nc2ccc(Cl)cc2C(c2ccccc2)=NC1Cc1ccc2ccccc2c1 (racemic) [Example 18, 7-Chloro-1,3-dihydro-3(RS)-(2-naphthyl)methyl-5-phenyl-2H-1,4-benzodiazepin-2-one]	4.31	pIC50 ([1]; IC50 ^125 I-CCK Brain): 4.21
O=C1Nc2ccccc2C(c2ccccc2F)=NC1Cc1c[nH]c2ccc(F)cc12 (racemic) [Example 59, 1,3-Dihydro-3(RS)-[3'-(5'-fluoroindolyl)methyl]-5-o-fluorophenyl-2H-1,4-benzpdiazepin-2-one]	5.85	
O=C1Nc2ccc(Cl)cc2C(c2ccccc2)N[C@H]1Cc1c[nH]c2ccccc12 (stereo partly drawn) [Example 26, 7-Chloro-1,3,4,5-tetrahydro-3(S)-(3'-indolyl)methyl-5-phenyl-2H-1,4-benzodiazepin-2-one]		pIC50 ([1]; read-out: IC50 ^125 I-CCK Brain): < 4.00; pIC50 (CCK receptor (pancreas); [3]): 4.12
CN1C(=O)[C@@H](Cc2c[nH]c3ccccc23)N=C(c2ccccc2)c2cc(Cl)ccc21 [Example 31, 7-Chloro-1,3-Dihydro-3(R)-(3'-indolyl)methyl-1-methyl-5-phenyl-2H-1,4-benzodiazepin-2-one]	5.85	pIC50 ([1]; IC50 ^125 I-CCK Brain): < 4.00
CN1C(=O)[C@@H](Cc2cn(Cc3ccccc3)c3ccccc23)N=C(c2ccccc2)c2cc(Cl)ccc21 [Example 46, 7-Chloro-1,3-dihydro-3(R)-[3'(1'-benzylindolyl)methyl]1-methyl-5-phenyl-2H-1,4-benzodiazepin-2-one]	< 4.00	pIC50 ([1]; IC50 ^125 I-CCK Brain): < 4.00
CC1=N[C@H](Cc2c[nH]c3ccccc23)C(=O)Nc2ccccc21 [Example 29, 1,3-Dihydro-3(R)-(3'-indolyl)methyl-5-methyl-2H-1,4-benzodiazepin-2-one]		pIC50 (CCK receptor (pancreas); [3]): 4.32
Fc1ccccc1C1=N[C@H](Cc2c[nH]c3ccccc23)CNc2ccccc21 [Example 12, 1,3-Dihydro-5-(2-fluorophenyl)-3(R)-(3'-indolyl)methyl-2H-1,4-benzodiazepin]	5.40	
O=C1[C@@H](Cc2c[nH]c3ccccc23)N=C(c2ccccc2F)c2ccccc2N1CC1CC1 [Example 37, 1-Cyclopropylmethyl-1,3-dihydro-5-(2-fluorophenyl)-3(R)-(3'-indolyl)methyl-2H-1,4-benzodiazepin-2-one]	5.66	
O=C1Nc2ccc(Cl)cc2C(c2ccccc2Cl)=N[C@@H]1Cc1c[nH]c2ccccc12 [Example 28, 7-Chloro-5-(2-chlorophenyl)-1,3-dihydro-3(R)-(3'-indolyl)methyl-2H-1,4-benzodiazepin-2-one]	5.30	pIC50 ([1]; IC50 ^125 I-CCK Brain): < 4.00
CN(C)CCN1C(=O)[C@@H](Cc2c[nH]c3ccccc23)N=C(c2ccccc2F)c2ccccc21 [Example 41, 1,3-Dihydro-1-(2-dimethylaminoethyl)-5-(2-fluorophenyl) 3(R)-(3'-indolyl)methyl-2H-1,4-benzodiazepin-2-one]	4.00	
O=C1Nc2ccccc2C(c2ccccc2F)=NC1Cc1cccs1 (racemic) [Example 19, 1,3-Dihydro-5-(2-fluorophenyl)-3(RS)-(2-thienyl)methyl-2H-1,4-benzodiazepin-2-one]	4.48	pIC50 ([1]; IC50 ^125 I-CCK Brain): < 4.00
O=C1Nc2ccccc2C(c2ccccc2F)=NC1c1ccsc1 (racemic) [Example 20, 1,3-Dihydro-5-(2-fluorophenyl)-3(RS)-(3-thienyl)-2H-1,4-benzodiazepin-2-one]	< 4.00	
O=C(O)c1ccccc1C1=N[C@H](Cc2c[nH]c3ccccc23)C(=O)Nc2ccccc21 [Example 58, 5-o-Carboxyphenyl-1,3-dihydro-3(R)-(3+-indolyl)methyl-2H-1,4-benzodiazepin-2-one]	4.74	
O=C1[C@H](Cc2c[nH]c3ccccc23)N=C(c2ccccc2)c2cc(Cl)ccc2N1Cc1ccccc1 [Example 33, 1-Benzyl-7-chloro-1,3-dihydro-3(S)-(3'-indolyl) methyl-5-phenyl-2H-1,4-benzodiazepin-2-one]	< 4.00	pIC50 ([1]; IC50 ^125 I-CCK Brain): < 4.00
CCOC(=O)CN1C(=O)[C@@H](Cc2c[nH]c3ccccc23)N=C(c2ccccc2F)c2ccccc21 [Example 42, 1,3-Dihydro-1-(ethoxycarbonylmethyl)-5-(2-fluorophenyl)-3(R)-(3'-indolyl)methyl-2H-1,4-benzodiazepin-2-one]	5.08	pIC50 ([1]; IC50 ^125 I-CCK Brain): < 4.00
O=C1Nc2ccc(Cl)cc2C(c2ccccc2)=N[C@@H]1Cc1ccccc1 [Example 13, 7-Chloro-1,3-dihydro-3(R)-benzyl-5-phenyl-2H-1,4-benzodiazepin-2-one]	4.10	
CN1C(=O)/C(=C\c2ccsc2)N=C(c2ccccc2)c2ccccc21 [95 E]	4.60	
O=C1Nc2ccccc2C(c2ccccc2)=NC1CC1CNc2ccccc21 (stereo not drawn) [Example 199, 3-((2,3-Dihydro-1H-indol-3-yl)methyl)-1,3-dihydro-5-phenyl-2H-1,4-benzodiazepin-2-one]	5.49	
NC(=O)CN1C(=O)[C@@H](Cc2c[nH]c3ccccc23)N=C(c2ccccc2F)c2ccccc21 [Example 123, 1-Carboxamidomethyl-1,3-dihydro-3R-(3-indolylmethyl)-5-(2-fluorophenyl)-2H-1,4-benzodiazepin-2-one]	5.68	
CC(C)CC(NC(=O)OC(C)(C)C)C(=O)N1CC(CC2N=C(c3ccccc3)c3ccccc3NC2=O)c2ccccc21 (stereo not drawn) [Example 225, (1-((3-((2,3-Dihydro-2-oxo-5-phenyl-1H-1,4-benzodiazepin-3-yl)methyl)-2,3-dihydro-1H-indol-1-yl)carbonyl)-3-methylbutyl)-carbamic acid-1,1-dimethylethyl ester]	5.33	
CN1C(=O)/C(=C/c2ccsc2)N=C(c2ccccc2)c2ccccc21 [95 Z]	4.00	
O=C1Nc2ccccc2C(c2ccccc2F)=N[C@@H]1Cc1c[nH]c2ccccc12 [2 & 3]	6.40	
O=C1[C@@H](Cc2c[nH]c3ccccc23)N=C(c2ccccc2F)c2ccccc2N1CC(F)(F)F [Example 40, 1,3-Dihydro-5-(2-fluorophenyl)-3(R)-(3'-indolyl)methyl-1-(2,2,2-trifluoroethyl)-2H-1,4-benzodiazepin-2-one]	5.44	
O=C1Nc2ccccc2C(c2ccccc2F)=N[C@H]1Cc1c[nH]c2ccccc12 [Example 32, 1,3-Dihydro-5-(2-fluorophenyl)-3(S)-(3'-indolyl) methyl-2H-1,4-benzodiazepin-2-one]	4.97	
CCCCCN1C(=O)[C@@H](Cc2c[nH]c3ccccc23)N=C(c2ccccc2F)c2ccccc21 [Example 38, 1,3-Dihydro-5-(2-fluorophenyl)-3(R)-(3'-indolyl) methyl-1-pentyl-2H-1,4-benzodiazepin-2-one]	4.00	
CN1C(=O)C(NC(=O)c2cc3ccccc3n2C)N=C(c2ccccc2F)c2ccccc21 (racemic) [Example 81b, 1,3-Dihydro-5-(2-fluorophenyl)-1-methyl-3(RS)-[2'-(1-methylindole)carbonylamino]-2H-1,4-benzodiazepin-2-one]		pIC50 ([1]; IC50 ^125 I-CCK Brain): 6.00; pIC50 [2]: 5.80
